# Measurements reported in ChEMBL document CHEMBL1143705, “Cytotoxic dibromotyrosine-derived metabolites from the sponge Aplysina gerardogreeni” (2007).
# Test system: MDA-MB-231
# Assay: Cytotoxicity against human MDA-MB-231 cells by SRB assay
# Assay type: functional
# Conditions: not given
SMILES,GI50,TGI
COC1=C(Br)[C@H](O)[C@@]2(C=C1Br)CC(C(=O)NCCCCCNC(=O)C1=NO[C@]3(C=C(Br)C(=O)[C@@H](Br)[C@@H]3O)C1)=NO2 [APLYSINONE A],3.3 µM,5.4 µM
O=C(NCCCCCNC(=O)C1=NO[C@]2(C=C(Br)C(=O)[C@@H](Br)[C@@H]2O)C1)C1=NO[C@]2(C=C(Br)C(=O)[C@@H](Br)[C@@H]2O)C1 [APLYSINONE B],1.6 µM,2.1 µM
COC1=C(Br)[C@H](O)[C@@]2(C=C1Br)CC(C(=O)NCCCCCNC(=O)C1=NO[C@]3(C=C(Br)C(=O)[C@@H]4O[C@@H]43)C1)=NO2 [APLYSINONE C],5.6 µM,5.8 µM
COC1=C(Br)[C@H](O)[C@@]2(C=C1Br)CC(C(=O)NCCCCNC(=O)C1=NO[C@]3(C=C(Br)C(=O)[C@@H](Br)[C@@H]3O)C1)=NO2 [APLYSINONE D],3.5 µM,5 µM
COc1cccc2c1C(=O)c1c(O)c3c(c(O)c1C2=O)C[C@@](O)(C(=O)CO)C[C@@H]3O[C@H]1C[C@H](N)[C@H](O)[C@H](C)O1 [DOXORUBICIN],0.1 µM,0.3 µM
COC1=C(Br)[C@H](O)[C@@]2(C=C1Br)CC(C(=O)NCCCCCNC(=O)C1=NO[C@]3(C=C(Br)C(OC)=C(Br)[C@@H]3O)C1)=NO2 [HOMOAEROTHIONIN],> 10 µg/mL,> 10 µg/mL

# Same assay, conditions: read-out: LC50 (the source's name)
row,SMILES,CC50
1,COC1=C(Br)[C@H](O)[C@@]2(C=C1Br)CC(C(=O)NCCCCCNC(=O)C1=NO[C@]3(C=C(Br)C(=O)[C@@H](Br)[C@@H]3O)C1)=NO2 [APLYSINONE A],8.2 µM
2,O=C(NCCCCCNC(=O)C1=NO[C@]2(C=C(Br)C(=O)[C@@H](Br)[C@@H]2O)C1)C1=NO[C@]2(C=C(Br)C(=O)[C@@H](Br)[C@@H]2O)C1 [APLYSINONE B],3 µM
3,COC1=C(Br)[C@H](O)[C@@]2(C=C1Br)CC(C(=O)NCCCCCNC(=O)C1=NO[C@]3(C=C(Br)C(=O)[C@@H]4O[C@@H]43)C1)=NO2 [APLYSINONE C],6.4 µM
4,COC1=C(Br)[C@H](O)[C@@]2(C=C1Br)CC(C(=O)NCCCCNC(=O)C1=NO[C@]3(C=C(Br)C(=O)[C@@H](Br)[C@@H]3O)C1)=NO2 [APLYSINONE D],7.6 µM
5,COc1cccc2c1C(=O)c1c(O)c3c(c(O)c1C2=O)C[C@@](O)(C(=O)CO)C[C@@H]3O[C@H]1C[C@H](N)[C@H](O)[C@H](C)O1 [DOXORUBICIN],1.4 µM
6,COC1=C(Br)[C@H](O)[C@@]2(C=C1Br)CC(C(=O)NCCCCCNC(=O)C1=NO[C@]3(C=C(Br)C(OC)=C(Br)[C@@H]3O)C1)=NO2 [HOMOAEROTHIONIN],> 10 µg/mL

# Test system: A549
# Assay: Cytotoxicity against human A549 cells by SRB assay
# Assay type: functional
# Conditions: not given
SMILES,GI50,TGI
COC1=C(Br)[C@H](O)[C@@]2(C=C1Br)CC(C(=O)NCCCCCNC(=O)C1=NO[C@]3(C=C(Br)C(=O)[C@@H](Br)[C@@H]3O)C1)=NO2 [APLYSINONE A],4.5 µM,7.1 µM
O=C(NCCCCCNC(=O)C1=NO[C@]2(C=C(Br)C(=O)[C@@H](Br)[C@@H]2O)C1)C1=NO[C@]2(C=C(Br)C(=O)[C@@H](Br)[C@@H]2O)C1 [APLYSINONE B],2 µM,2.9 µM
COC1=C(Br)[C@H](O)[C@@]2(C=C1Br)CC(C(=O)NCCCCCNC(=O)C1=NO[C@]3(C=C(Br)C(=O)[C@@H]4O[C@@H]43)C1)=NO2 [APLYSINONE C],10.7 µM,> 10 µg/mL
COC1=C(Br)[C@H](O)[C@@]2(C=C1Br)CC(C(=O)NCCCCNC(=O)C1=NO[C@]3(C=C(Br)C(=O)[C@@H](Br)[C@@H]3O)C1)=NO2 [APLYSINONE D],5.7 µM,> 10 µg/mL
COc1cccc2c1C(=O)c1c(O)c3c(c(O)c1C2=O)C[C@@](O)(C(=O)CO)C[C@@H]3O[C@H]1C[C@H](N)[C@H](O)[C@H](C)O1 [DOXORUBICIN],0.1 µM,0.2 µM
COC1=C(Br)[C@H](O)[C@@]2(C=C1Br)CC(C(=O)NCCCCCNC(=O)C1=NO[C@]3(C=C(Br)C(OC)=C(Br)[C@@H]3O)C1)=NO2 [HOMOAEROTHIONIN],> 10 µg/mL,> 10 µg/mL

# Same assay, conditions: read-out: LC50 (the source's name)
row,SMILES,CC50
1,COC1=C(Br)[C@H](O)[C@@]2(C=C1Br)CC(C(=O)NCCCCCNC(=O)C1=NO[C@]3(C=C(Br)C(=O)[C@@H](Br)[C@@H]3O)C1)=NO2 [APLYSINONE A],> 10 µg/mL
2,O=C(NCCCCCNC(=O)C1=NO[C@]2(C=C(Br)C(=O)[C@@H](Br)[C@@H]2O)C1)C1=NO[C@]2(C=C(Br)C(=O)[C@@H](Br)[C@@H]2O)C1 [APLYSINONE B],4.1 µM
3,COC1=C(Br)[C@H](O)[C@@]2(C=C1Br)CC(C(=O)NCCCCCNC(=O)C1=NO[C@]3(C=C(Br)C(=O)[C@@H]4O[C@@H]43)C1)=NO2 [APLYSINONE C],> 10 µg/mL
4,COC1=C(Br)[C@H](O)[C@@]2(C=C1Br)CC(C(=O)NCCCCNC(=O)C1=NO[C@]3(C=C(Br)C(=O)[C@@H](Br)[C@@H]3O)C1)=NO2 [APLYSINONE D],> 10 µg/mL
5,COc1cccc2c1C(=O)c1c(O)c3c(c(O)c1C2=O)C[C@@](O)(C(=O)CO)C[C@@H]3O[C@H]1C[C@H](N)[C@H](O)[C@H](C)O1 [DOXORUBICIN],1 µM
6,COC1=C(Br)[C@H](O)[C@@]2(C=C1Br)CC(C(=O)NCCCCCNC(=O)C1=NO[C@]3(C=C(Br)C(OC)=C(Br)[C@@H]3O)C1)=NO2 [HOMOAEROTHIONIN],> 10 µg/mL

# Test system: HT-29
# Assay: Cytotoxicity against human HT29 cells by SRB assay
# Assay type: functional
# Conditions: not given
SMILES,GI50,TGI
COC1=C(Br)[C@H](O)[C@@]2(C=C1Br)CC(C(=O)NCCCCCNC(=O)C1=NO[C@]3(C=C(Br)C(=O)[C@@H](Br)[C@@H]3O)C1)=NO2 [APLYSINONE A],2.8 µM,4.8 µM
O=C(NCCCCCNC(=O)C1=NO[C@]2(C=C(Br)C(=O)[C@@H](Br)[C@@H]2O)C1)C1=NO[C@]2(C=C(Br)C(=O)[C@@H](Br)[C@@H]2O)C1 [APLYSINONE B],1.5 µM,2.1 µM
COC1=C(Br)[C@H](O)[C@@]2(C=C1Br)CC(C(=O)NCCCCCNC(=O)C1=NO[C@]3(C=C(Br)C(=O)[C@@H]4O[C@@H]43)C1)=NO2 [APLYSINONE C],12.6 µM,> 10 µg/mL
COC1=C(Br)[C@H](O)[C@@]2(C=C1Br)CC(C(=O)NCCCCNC(=O)C1=NO[C@]3(C=C(Br)C(=O)[C@@H](Br)[C@@H]3O)C1)=NO2 [APLYSINONE D],4.1 µM,5.2 µM
COc1cccc2c1C(=O)c1c(O)c3c(c(O)c1C2=O)C[C@@](O)(C(=O)CO)C[C@@H]3O[C@H]1C[C@H](N)[C@H](O)[C@H](C)O1 [DOXORUBICIN],0.1 µM,0.3 µM
COC1=C(Br)[C@H](O)[C@@]2(C=C1Br)CC(C(=O)NCCCCCNC(=O)C1=NO[C@]3(C=C(Br)C(OC)=C(Br)[C@@H]3O)C1)=NO2 [HOMOAEROTHIONIN],> 10 µg/mL,> 10 µg/mL

# Same assay, conditions: read-out: LC50 (the source's name)
row,SMILES,CC50
1,COC1=C(Br)[C@H](O)[C@@]2(C=C1Br)CC(C(=O)NCCCCCNC(=O)C1=NO[C@]3(C=C(Br)C(=O)[C@@H](Br)[C@@H]3O)C1)=NO2 [APLYSINONE A],9.1 µM
2,O=C(NCCCCCNC(=O)C1=NO[C@]2(C=C(Br)C(=O)[C@@H](Br)[C@@H]2O)C1)C1=NO[C@]2(C=C(Br)C(=O)[C@@H](Br)[C@@H]2O)C1 [APLYSINONE B],3 µM
3,COC1=C(Br)[C@H](O)[C@@]2(C=C1Br)CC(C(=O)NCCCCCNC(=O)C1=NO[C@]3(C=C(Br)C(=O)[C@@H]4O[C@@H]43)C1)=NO2 [APLYSINONE C],> 10 µg/mL
4,COC1=C(Br)[C@H](O)[C@@]2(C=C1Br)CC(C(=O)NCCCCNC(=O)C1=NO[C@]3(C=C(Br)C(=O)[C@@H](Br)[C@@H]3O)C1)=NO2 [APLYSINONE D],11.3 µM
5,COc1cccc2c1C(=O)c1c(O)c3c(c(O)c1C2=O)C[C@@](O)(C(=O)CO)C[C@@H]3O[C@H]1C[C@H](N)[C@H](O)[C@H](C)O1 [DOXORUBICIN],0.4 µM
6,COC1=C(Br)[C@H](O)[C@@]2(C=C1Br)CC(C(=O)NCCCCCNC(=O)C1=NO[C@]3(C=C(Br)C(OC)=C(Br)[C@@H]3O)C1)=NO2 [HOMOAEROTHIONIN],> 10 µg/mL
